Assay results reported in patent US12421276B2 (priority 2016, dated 2025).

Columns and labels:
[1] = Plasma stability study, human plasma; format: in vitro ADME; details: human, plasma
Procedure: (§1) Human and rat plasma (K2 EDTA) were obtained from Bioreclamation.
(§2) Compounds were dissolved as 0.3 mM DMSO stocks. Compounds were transferred to the plasma at 1 μM on a 96-well deep well plate. After mixing, samples were transferred to several 96-well plates (25 μL/well), and incubated at 37° C. The extent of metabolism was calculated as the disappearance of the test compound, compared to the 0-min control reaction incubations. Propantheline was included as a positive control to verify assay performance.
(§3) At each of the time points, 150 μL of quench solution (50% acetonitrile, 50% methanol with 0.05% formic acid) with internal standard (bucetin for positive ESI mode and warfarin for negative ESI mode) was transferred to each well. Plates were sealed and centrifuged at 4° C. for 15 minutes at 4000 rpm. The supernatant was transferred to fresh plates for LC/MS/MS analysis.
(§4) Elution conditions are detailed in the table below.
(§5) Initial rates of the clearance of test compounds were calculated using linear regression of semi-log plot of % remaining of compounds versus time. The elimination rate constant (equals to −slope) of the linear regression was then used to determine t½ values.

[2] = Plasma stability study, rat plasma; format: in vitro ADME; details: rat, plasma
Procedure: as §1, §2, §3, §4, §5

Caco-2 cells = assay: Caco-2 permeability study with or without P-gp inhibitor GF120918; details: for Caco-2 Cells Permeability Recovery Rate: 1 hr, pH 7.4
Procedure: Buffer=HBSS, pH 7.4 with 5 mM HEPES
Caco-2 cell plates were obtained commercially and were maintained for 21 days at 37° C. with 5% CO2. Cells were washed with Hank's Balanced Salt Solution (HBSS) 30 min before starting the experiment. Test compound solutions were prepared by diluting from DMSO stock into HBSS buffer in the presence or absence of 10 μM of P-gp inhibitor GF120918. The final DMSO concentration is 0.2%. Prior to each experiment, cell monolayer integrity was verified by transendothelial electrical resistance (TEER). Transport experiment was initiated by adding test compounds to the apical (75 μL) side. Transport plates were incubated at 37° C. in a humidified incubator with 5% CO2. Samples were taken from the donor and acceptor compartments after 1 hr and analyzed by liquid chromatography with tandem mass spectrometry (LC/MS/MS).
Apparent permeability (Papp) values were calculated using the following equation: Papp=(dQ/dt)/A/C0
where dQ/dt is the initial rate of amount of test compound transported across cell monolayer, A is the surface area of the filter membrane, and C0 is the initial concentration of the test compound. C0 is calculated for each condition using a 4-point calibration curve.
Absorption quotient between the two assay conditions was calculated by the following equation:
Absorption quotient (AQ)=(Papp, A-B with inhibitor−Papp, A-B without inhibitor)/Papp, A-B with inhibitor where Papp, A-B with inhibitor and Papp, A-B without inhibitor represent the apparent permeability of test compound from the apical to basal side of the cellular monolayer in the presence and absence of 10 μM P-gp inhibitor GF120918, respectively.
All samples were analyzed on LC/MS/MS using an AB Sciex API 4000 instrument, coupled to a Shimadzu LC-20AD LC Pump system. Analytical samples were separated using a Waters Atlantis T3 dC18 reverse phase HPLC column (10 mm×2.1 mm) at a flow rate of 0.5 mL/min. The mobile phase consisted of 0.1% formic acid in water (solvent A) and 0.1% formic acid in acetonitrile (solvent B).

Structure (SMILES): CCCCCC(=O)NC(Cc1ccc(OC(=O)CN2CCN(C)CC2)cc1)C(=O)NC(C(=O)NCCCCCC(N)=O)C(C)CC (centres unmarked) [Compound A22]
- Plasma Stability Half-Life [1]: 87.9 min
- Plasma Stability Half-Life [2]: 8.7 min
- Abs. Quotient (Caco-2 cells; (Papp A-B with inhibitor − without inhibitor)/Papp A-B with inhibitor): 0.78
- Caco-2 Cells Permeability Recovery Rate (Caco-2 cells; +GF120918 (10 μM), 10 μM compound): 104%
- Caco-2 Cells Permeability Recovery Rate (Caco-2 cells; −GF120918, 10 μM compound): 107%
